Laboratory results reported in patent publication US12247010B2, “Tubulin inhibitors” (LIN BIOSCIENCE PTY LTD., priority 2017, dated 2025).

What was measured:
[1] = test system: U87MG cells; experiment: Cytotoxicity assay (cell viability, CellTiter 96 Aqueous MTS); assay type: cell-based; details: Homo sapiens, U-87 MG, 72 h, 72 hours incubation, starting concentration 50 uM, 9 point half log dilution, average where tested repeatedly
In short: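 U87MG cells plated at 7×10^3 cells/well overnight, then treated 72 h with 9-point half-log dilutions from a 50 uM starting concentration. Viability measured with CellTiter 96 Aqueous MTS; IC50 calculated from viability.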

[2] = test system: tubulin; experiment: Tubulin polymerization assay (Cytoskeleton, Inc. inhibitor screening protocol); assay type: biochemical; details: 3 μM, 37C, compared to DMSO control
Method: Example 4. Tubulin Polymerization Assay
Compounds described herein were tested in a tubulin polymerization inhibition assay using the general manufacturer's protocol for inhibitor screening (Cytoskeleton, Inc. BK01 IP). DMSO was used as a negative control, and vinblastine was tested as a positive control. All compounds were tested at a concentration of 3 μM, and incubation was carried out at 37C for 60 minutes. Results were calculated as a percent inhibition (compared to DMSO control) after 60 min of incubation, the results of which are shown in Table 3.

| Structure (SMILES) | IC50 [1] [nM] | % Tubulin Polymerization at 60 min [2] |
| --- | --- | --- |
| Cc1ccc(C(=O)NCCCc2ccc(-c3ccc4c(cnn4C)c3)cc2)cn1 [Compound 226, 6-methyl-N-(3-(4-(1-methyl-1H-indazol-5-yl)phenyl)propyl)nicotinamide] | < 500 | C (C is 41-60%) |
| Cc1cc(C(=O)NCCCc2ccc(-c3ccc4ncccc4c3)cc2)no1 [Compound 239, 5-methyl-N-(3-(4-(quinolin-6-yl)phenyl)propyl)isoxazole-3-carboxamide] | < 500 | C (C is 41-60%) |
| Cc1cc(C(=O)NCCCc2ccc(-c3cnc4[nH]ccc4c3)cc2)n(C)n1 [Compound 233, N-(3-(4-(1H-pyrrolo[2,3-b]pyridin-5-yl)phenyl)propyl)-1,3-dimethyl-1H-pyrazole-5-carboxamide] | < 500 | A (A is < 20%) |
| O=C(Nc1ccc2[nH]ccc2c1)N1CCN(c2ccc(-c3ccccc3F)cc2)CC1 [Compound 280, 4-(2′-fluoro-[1,1′-biphenyl]-4-yl)-N-(1H-indol-5-yl)piperazine-1-carboxamide] | < 500 | F (F is 81-100%) |
| Cc1ccc(C(=O)NCCCc2ccc(-c3ccc4[nH]ncc4c3C)cc2)cn1 [Compound 243, 6-methyl-N-(3-(4-(4-methyl-1H-indazol-5-yl)phenyl)propyl)nicotinamide] | < 500 | A (A is < 20%) |
| O=C(CCCc1ccc(-c2ccc3[nH]c(=O)ccc3c2)cc1)Nc1cccnc1 [Compound 207, 4-(4-(2-oxo-1,2-dihydroquinolin-6-yl)phenyl)-N-(pyridin-3-yl)butanamide] | < 500 | D (D is 61-80%) |
| O=C(CCCc1ccc(-c2ccc3cnccc3c2)cc1)Nc1cccnc1 [Compound 214, 4-(4-(isoquinolin-6-yl)phenyl)-N-(pyridin-3-yl)butanamide] | < 500 | F (F is 81-100%) |
| Cc1ncc(C(=O)NCCCc2ccc(-c3ccccc3F)cc2)s1 [Compound 138, N-(3-(2′-fluoro-[1,1′-biphenyl]-4-yl)propyl)-2-methylthiazole-5-carboxamide] | < 500 | A (A is < 20%) |
| Cn1ncc2cc(-c3ccc(CCCNC(=O)c4cnc(N)nc4)cc3)ccc21 [Compound 232, 2-amino-N-(3-(4-(1-methyl-1H-indazol-5-yl)phenyl)propyl)pyrimidine-5-carboxamide] | < 500 | C (C is 41-60%) |
| COc1ccc(CC(=O)NCCCc2ccc(-c3ccccc3F)cc2)cc1 [Compound 101, N-(3-(2′-fluoro-[1,1′-biphenyl]-4-yl)propyl)-2-(4-methoxyphenyl)acetamide] | < 500 | C (C is 41-60%) |
| Cc1cc(C(=O)NCCCc2ccc(-c3ccc4[nH]ncc4c3C)cc2)no1 [Compound 230, 5-methyl-N-(3-(4-(4-methyl-1H-indazol-5-yl)phenyl)propyl)isoxazole-3-carboxamide] | < 500 | C (C is 41-60%) |
| CC[C@]1(O)C[C@@H]2CN(CCc3c([nH]c4ccccc34)[C@@](C(=O)OC)(c3cc4c(cc3OC)N(C)[C@H]3[C@@](O)(C(=O)OC)[C@H](OC(C)=O)[C@]5(CC)C=CCN6CC[C@]43[C@@H]65)C2)C1 [Vinblastine, vinblastine, reference compound] | – | A (A is < 20%) |
| Cc1ncccc1C(=O)NCCCc1ccc(-c2ccccc2F)cc1 [Compound 81, N-(3-(2′-fluoro-[1,1′-biphenyl]-4-yl)propyl)-2-methylnicotinamide] | < 500 | A (A is < 20%) |
| O=C(CCCc1ccc(-c2ccc3c(c2)CCC(=O)N3)cc1)Nc1cccnc1 [Compound 196, 4-(4-(2-oxo-1,2,3,4-tetrahydroquinolin-6-yl)phenyl)-N-(pyridin-3-yl)butanamide] | < 500 | – |
| Cn1cnc2cc(C(=O)NCCCc3ccc(-c4ccccc4F)cc3)cnc21 [Compound 95, N-(3-(2′-fluoro-[1,1′-biphenyl]-4-yl)propyl)-3-methyl-3H-imidazo[4,5-b]pyridine-6-carboxamide] | < 500 | – |
| COc1ccc(CC(=O)NCCCc2ccc(-c3cccc(OC)c3F)cc2)cc1 [Compound 245, N-(3-(2′-fluoro-3′-methoxy-[1,1′-biphenyl]-4-yl)propyl)-2-(4-methoxyphenyl)acetamide] | 501 to 1000 | – |
| O=C(CCCc1ccc(-c2ccc(C(F)(F)F)nc2)cc1)Nc1cccnc1 [Compound 155, N-(pyridin-3-yl)-4-(4-(6-(trifluoromethyl)pyridin-3-yl)phenyl)butanamide] | 501 to 1000 | – |
| O=C(CCCc1ccc(-c2cn[nH]c2)cc1)Nc1cccnc1 [Compound 176, 4-(4-(1H-pyrazol-4-yl)phenyl)-N-(pyridin-3-yl)butanamide] | > 5000 | – |
| COc1ccc(CC(=O)NCCCc2ccc(-c3cnc4[nH]ccc4c3)cc2)cc1 [Compound 316, N-(3-(4-(1H-pyrrolo[2,3-b]pyridin-5-yl)phenyl)propyl)-2-(4-methoxyphenyl)acetamide] | < 500 | – |
| Cc1ccc(NC(=O)N2CCN(c3ccc(-c4ccccc4F)cc3)CC2)cn1 [Compound 279, 4-(2′-fluoro-[1,1′-biphenyl]-4-yl)-N-(6-methylpyridin-3-yl)piperazine-1-carboxamide] | 501 to 1000 | – |
| O=C(NCCCc1ccc(-c2ccccc2F)cc1)c1nc2ccccc2[nH]1 [Compound 84, N-(3-(2′-fluoro-[1,1′-biphenyl]-4-yl)propyl)-1H-benzo[d]imidazole-2-carboxamide] | > 5000 | – |
| O=C(NCCCc1ccc(-c2ccccc2F)cc1)c1ccc2[nH]cnc2c1 [Compound 136, N-(3-(2′-fluoro-[1,1′-biphenyl]-4-yl)propyl)-1H-benzo[d]imidazole-5-carboxamide] | < 500 | A (A is < 20%) |
| Cn1ncc2ccc(-c3ccc(CCCC(=O)Nc4cccnc4)cc3)cc21 [Compound 166, 4-(4-(1-methyl-1H-indazol-6-yl)phenyl)-N-(pyridin-3-yl)butanamide] | 1000 to 5000 | – |
| O=C(CCCc1ccc(-c2ccccc2F)cc1)Nc1ccc2[nH]c(=O)[nH]c2c1 [Compound 58, 4-(2′-fluoro-[1,1′-biphenyl]-4-yl)-N-(2-oxo-2,3-dihydro-1H-benzo[d]imidazol-5-yl)butanamide] | > 5000 | – |
| COc1ccc(CC(=O)NCCCc2ccc(-c3ccc4[nH]ncc4c3C)cc2)cc1 [Compound 247, 2-(4-methoxyphenyl)-N-(3-(4-(4-methyl-1H-indazol-5-yl)phenyl)propyl)acetamide] | < 500 | – |
| Nc1ncc(C(=O)NCCCc2ccc(-c3ccccc3F)cc2)cn1 [Compound 96] | < 500 | A (A is < 20%) |
| COc1ncccc1-c1ccc(CCCC(=O)Nc2cccnc2)cc1 [Compound 178, 4-(4-(2-methoxypyridin-3-yl)phenyl)-N-(pyridin-3-yl)butanamide] | > 5000 | – |
| O=C(CCCc1ccc(-c2ccccc2F)cc1)Nc1ccc(C(F)(F)F)nc1 [Compound 51, 4-(2′-fluoro-[1,1′-biphenyl]-4-yl)-N-(6-(trifluoromethyl)pyridin-3-yl)butanamide] | > 5000 | – |
| Cc1cc(C(=O)NCCCc2ccc(-c3ccc4ncccc4c3)cc2)n(C)n1 [Compound 242, 1,3-dimethyl-N-(3-(4-(quinolin-6-yl)phenyl)propyl)-1H-pyrazole-5-carboxamide] | < 500 | – |
